Results reported in patent US11339130B1 (Blade Therapeutics, Inc., priority 2016, dated 2022).
pIC50: −log10 of the molar value. Like-named read-outs stand apart in the source and are kept apart here.

Key:
[1] = test system: Calpain activity in SH-SY5Y cells (SBDP-150); experiment: SH-SY5Y Spectrin western blot assay (SBDP-150 breakdown product, A23187-induced); format: cell-based; details: Homo sapiens, SH-SY5Y cells, read-out: SH-SY5Y Spectrin IC50
Human Calpain 2/NS1 = target: T1, Human Calpain 2/NS1 (Homo sapiens, UniProt P17655); experiment: Calpain inhibition continuous fluorescence (FRET) assay, Human Calpain 2/NS1; format: biochemical; details: read-out: Human Calpain 2/NS1 IC50
T1 sequence (P17655 1-700): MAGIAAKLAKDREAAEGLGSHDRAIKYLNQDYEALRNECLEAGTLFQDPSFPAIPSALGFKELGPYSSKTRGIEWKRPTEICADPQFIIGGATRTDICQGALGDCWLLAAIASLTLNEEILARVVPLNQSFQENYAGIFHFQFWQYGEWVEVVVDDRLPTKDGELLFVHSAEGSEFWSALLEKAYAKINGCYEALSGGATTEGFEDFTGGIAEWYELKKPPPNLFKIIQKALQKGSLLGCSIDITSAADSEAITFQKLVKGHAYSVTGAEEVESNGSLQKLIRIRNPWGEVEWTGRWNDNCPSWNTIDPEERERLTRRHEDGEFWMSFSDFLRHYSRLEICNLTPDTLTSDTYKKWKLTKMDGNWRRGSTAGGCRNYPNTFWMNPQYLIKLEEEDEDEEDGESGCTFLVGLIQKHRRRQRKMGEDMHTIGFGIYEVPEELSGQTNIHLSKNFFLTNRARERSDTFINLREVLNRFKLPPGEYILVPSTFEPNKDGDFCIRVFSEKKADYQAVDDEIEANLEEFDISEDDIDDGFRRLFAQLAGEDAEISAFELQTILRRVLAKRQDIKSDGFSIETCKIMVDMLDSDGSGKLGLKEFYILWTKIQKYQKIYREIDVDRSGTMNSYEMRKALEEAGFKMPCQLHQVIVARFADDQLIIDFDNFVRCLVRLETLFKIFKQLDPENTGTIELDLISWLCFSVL
T1 sequence (P04632 1-268 partner): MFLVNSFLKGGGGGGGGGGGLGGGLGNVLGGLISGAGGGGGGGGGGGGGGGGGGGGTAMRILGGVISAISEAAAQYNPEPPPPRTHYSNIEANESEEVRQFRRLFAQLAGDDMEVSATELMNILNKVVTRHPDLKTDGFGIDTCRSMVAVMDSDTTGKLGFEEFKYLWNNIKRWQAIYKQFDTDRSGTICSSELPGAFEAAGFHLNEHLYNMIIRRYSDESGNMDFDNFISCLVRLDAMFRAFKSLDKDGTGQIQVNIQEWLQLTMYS
Summary of the method: (§1)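 Continuous FRET read (ex 490/em 520 nm, 10 min) of calpain 1, 2 or 9 cleaving an internally quenched 5-FAM peptide, triggered by substrate with CaCl2 after enzyme–inhibitor incubation at ambient 25 °C, pH 7.5 Tris/NaCl/DTT buffer. IC50 from initial rates (1-5 min) via 4-parameter fit.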

[2] = test system: Calpain activity in SH-SY5Y cells; experiment: SH-SY5Y + AMC fluorescence assay (Suc-LLVY-AMC substrate); format: cell-based; details: read-out: SH-SY5Y + AMC IC50
Human Calpain 1/NS1 = target: T2, Human Calpain 1/NS1 (Homo sapiens, UniProt P07384); experiment: Calpain inhibition continuous fluorescence (FRET) assay, Human Calpain 1/NS1; format: biochemical; details: read-out: Human Calpain 1/NS1 IC50
T2 sequence (P07384 1-714): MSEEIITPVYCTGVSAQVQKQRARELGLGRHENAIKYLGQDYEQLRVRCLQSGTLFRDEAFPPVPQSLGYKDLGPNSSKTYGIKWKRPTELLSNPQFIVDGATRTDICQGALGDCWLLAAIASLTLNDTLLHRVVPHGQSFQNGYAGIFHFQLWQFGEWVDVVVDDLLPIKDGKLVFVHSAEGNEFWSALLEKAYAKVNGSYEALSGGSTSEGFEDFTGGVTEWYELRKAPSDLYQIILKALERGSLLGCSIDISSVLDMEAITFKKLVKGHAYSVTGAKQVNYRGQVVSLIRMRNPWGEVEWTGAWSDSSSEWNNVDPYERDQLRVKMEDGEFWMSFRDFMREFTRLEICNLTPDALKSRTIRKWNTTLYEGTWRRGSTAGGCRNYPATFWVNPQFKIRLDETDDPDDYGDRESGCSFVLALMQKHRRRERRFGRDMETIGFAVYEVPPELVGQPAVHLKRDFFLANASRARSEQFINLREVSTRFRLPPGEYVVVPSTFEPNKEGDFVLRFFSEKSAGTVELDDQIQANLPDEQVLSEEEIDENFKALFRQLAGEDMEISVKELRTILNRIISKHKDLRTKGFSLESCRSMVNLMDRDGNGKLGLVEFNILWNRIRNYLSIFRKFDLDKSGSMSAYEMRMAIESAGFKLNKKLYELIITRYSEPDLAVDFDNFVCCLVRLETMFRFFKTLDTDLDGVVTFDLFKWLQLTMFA
T2 sequence (P04632 1-268 partner): T1 sequence (P04632 1-268 partner)
Summary of the method: as §1

Human Calpain 9/NS1 = target: T3, Human Calpain 9/NS1 (Homo sapiens, UniProt O14815); experiment: Calpain inhibition continuous fluorescence (FRET) assay, Human Calpain 9/NS1; format: biochemical; details: read-out: Human Calpain 9/NS1 IC50
T3 sequence (O14815 1-690): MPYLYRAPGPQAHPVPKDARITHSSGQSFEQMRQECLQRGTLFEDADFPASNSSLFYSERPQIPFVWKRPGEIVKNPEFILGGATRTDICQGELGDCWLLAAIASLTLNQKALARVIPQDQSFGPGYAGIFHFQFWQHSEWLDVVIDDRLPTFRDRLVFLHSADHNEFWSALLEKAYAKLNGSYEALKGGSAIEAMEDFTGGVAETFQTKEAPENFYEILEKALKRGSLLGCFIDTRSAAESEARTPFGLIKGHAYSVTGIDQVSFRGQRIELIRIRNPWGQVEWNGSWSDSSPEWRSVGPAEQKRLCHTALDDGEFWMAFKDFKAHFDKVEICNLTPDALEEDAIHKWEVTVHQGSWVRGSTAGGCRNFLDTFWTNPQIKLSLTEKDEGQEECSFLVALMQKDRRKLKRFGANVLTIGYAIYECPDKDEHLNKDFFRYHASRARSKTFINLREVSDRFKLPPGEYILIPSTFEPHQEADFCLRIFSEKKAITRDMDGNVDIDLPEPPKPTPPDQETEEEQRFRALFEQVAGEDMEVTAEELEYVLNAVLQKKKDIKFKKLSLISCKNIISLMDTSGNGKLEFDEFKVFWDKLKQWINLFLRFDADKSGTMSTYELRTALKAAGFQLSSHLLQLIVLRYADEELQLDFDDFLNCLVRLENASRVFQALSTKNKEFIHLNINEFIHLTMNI
T3 sequence (P04632 1-268 partner): T1 sequence (P04632 1-268 partner)
Summary of the method: as §1

[3] = A23187-induced SBDP-150, western blot
[4] = Column D, A23187-induced SBDP-150

SMILES | pIC50 [1, 3] | pIC50 (Human Calpain 2/NS1) | pIC50 [2] | pIC50 (Human Calpain 1/NS1) | pIC50 (Human Calpain 9/NS1) | pIC50 [1, 4] | pIC50 (Human Calpain 2/NS1; Column B) | pIC50 ([2]; Column E) | pIC50 (Human Calpain 1/NS1; Column A) | pIC50 (Human Calpain 9/NS1; Column C)
Cn1cc(C(=O)N[C@@H](Cc2ccccc2)C(=O)C(=O)NCc2ncco2)c(-c2ccccc2)n1 [Compound 334, (S)-1-methyl-N-(4-((oxazol-2-ylmethyl)amino)-3,4-dioxo-1-phenylbutan-2-yl)-3-phenyl-1H-pyrazole-4-carboxamide] | < 4.60 | > 5.52 | > 5.00 | > 5.52 | > 5.52 | – | – | – | – | –
Cn1cc(C(=O)N[C@@H](Cc2ccccc2)C(=O)CF)c(-c2ccccc2)n1 [Compound 476, (S)—N-(4-fluoro-3-oxo-1-phenylbutan-2-yl)-1-methyl-3-phenyl-1H-pyrazole-4-carboxamide] | 4.60 to 5.00 | > 5.52 | < 4.60 | > 5.52 | > 5.52 | – | – | – | – | –
Cc1cc(C(=O)N[C@@H](Cc2ccccc2)C(=O)C(N)=O)n(-c2ccc3ccccc3n2)n1 [Compound 15, (S)—N-(4-amino-3,4-dioxo-1-phenylbutan-2-yl)-3-methyl-1-(quinolin-2-yl)-1H-pyrazole-5-carboxamide] | – | – | – | – | – | > 5.00 | > 5.52 | 4.60 to 5.00 | > 5.52 | > 5.52
Cc1ccc(-c2ccc(-n3nc(C)cc3C(=O)N[C@@H](Cc3ccccc3)C(=O)C(N)=O)cc2)cc1 [Compound 130] | – | – | – | – | – | > 5.00 | > 5.52 | < 4.60 | > 5.52 | > 5.52
Cc1cc(C)cc(C[C@H](NC(=O)c2oc(C)nc2-c2ccccc2)C(=O)C(N)=O)c1 [Compound 388, (S)—N-(4-amino-1-(3,5-dimethylphenyl)-3,4-dioxobutan-2-yl)-2-methyl-4-phenyloxazole-5-carboxamide] | > 5.00 | > 5.52 | 4.60 to 5.00 | > 5.52 | > 5.52 | – | – | – | – | –
Cc1cc(C(=O)N[C@@H](Cc2ccccc2)C(=O)C(N)=O)n(-c2ccc(CNC(=O)c3ccccc3)cc2)n1 [Compound 154, (S)—N-(4-amino-3,4-dioxo-1-phenylbutan-2-yl)-1-(4-(benzamidomethyl)phenyl)-3-methyl-1H-pyrazole-5-carboxamide] | – | – | – | – | – | 4.60 to 5.00 | > 5.52 | < 4.60 | > 5.52 | > 5.52
Cc1cc(C(=O)N[C@@H](Cc2ccccc2)C(=O)C(N)=O)n(-c2cccc(-c3ccccc3C)c2)n1 [Compound 81, (S)—N-(4-amino-3,4-dioxo-1-phenylbutan-2-yl)-3-methyl-1-(2′-methyl-[1,1′-biphenyl]-3-yl)-1H-pyrazole-5-carboxamide] | – | – | – | – | – | > 5.00 | > 5.52 | 4.60 to 5.00 | > 5.52 | > 5.52
Cc1noc(-c2ccccc2)c1C(=O)N[C@@H](Cc1ccccc1)C(=O)C(N)=O [Compound 23, (S)—N-(4-amino-3,4-dioxo-1-phenylbutan-2-yl)-3-methyl-5-phenylisoxazole-4-carboxamide] | – | – | – | – | – | 4.60 to 5.00 | > 5.52 | < 4.60 | > 5.52 | > 5.52
O=CC(Cc1ccccc1)NC(=O)c1cnoc1-c1ccccc1 (stereo not drawn) [Compound 397, N-(1-oxo-3-phenylpropan-2-yl)-5-phenylisoxazole-4-carboxamide] | > 5.00 | > 5.52 | < 4.60 | > 5.52 | > 5.52 | – | – | – | – | –
Cn1cc(C(=O)NC(Cc2ccccc2)C(=O)C(N)=O)c(-c2ccccc2C(F)F)n1 (stereo not drawn) [Compound 572, N-(4-amino-3,4-dioxo-1-phenylbutan-2-yl)-3-(2-(difluoromethyl)phenyl)-1-methyl-1H-pyrazole-4-carboxamide] | < 4.60 | > 5.52 | > 5.00 | > 5.52 | > 5.52 | – | – | – | – | –
Cc1cc(C(=O)NC(Cc2ccccc2)C(=O)C(N)=O)n(-c2ccnc(C3CC3)n2)n1 (stereo not drawn) [Compound 352, N-(4-amino-3,4-dioxo-1-phenylbutan-2-yl)-1-(2-cyclopropylpyrimidin-4-yl)-3-methyl-1H-pyrazole-5-carboxamide] | < 4.60 | > 5.52 | 4.60 to 5.00 | > 5.52 | > 5.52 | – | – | – | – | –
Cc1cccc(-c2c(C(=O)N[C@@H](Cc3ccccc3)C(=O)C(N)=O)cnn2C)c1 [Compound 172, (S)—N-(4-amino-3,4-dioxo-1-phenylbutan-2-yl)-1-methyl-5-(m-tolyl)-1H-pyrazole-4-carboxamide] | – | – | – | – | – | > 5.00 | > 5.52 | < 4.60 | > 5.52 | > 5.52
Cc1cc(C)cc(-c2nn(C(F)F)cc2C(=O)NC(Cc2ccccc2)C(=O)C(N)=O)c1 (stereo not drawn) [Compound 565, N-(4-amino-3,4-dioxo-1-phenylbutan-2-yl)-1-(difluoromethyl)-3-(3,5-dimethylphenyl)-1H-pyrazole-4-carboxamide] | > 5.00 | > 5.52 | < 4.60 | > 5.52 | > 5.52 | – | – | – | – | –
Cc1cccc(-c2nn(C)cc2C(=O)N[C@@H](Cc2ccccc2)C(=O)C(N)=O)c1 [Compound 163, (S)—N-(4-amino-3,4-dioxo-1-phenylbutan-2-yl)-1-methyl-3-(M-tolyl)-1H-pyrazole-4-carboxamide] | – | – | – | – | – | 4.60 to 5.00 | > 5.52 | 4.60 to 5.00 | > 5.52 | > 5.52
NC(=O)C(=O)[C@H](Cc1ccccc1)NC(=O)c1nonc1-c1ccccc1 [Compound 293, (S)—N-(4-amino-3,4-dioxo-1-phenylbutan-2-yl)-4-phenyl-1,2,5-oxadiazole-3-carboxamide] | – | – | – | – | – | 4.60 to 5.00 | > 5.52 | > 5.00 | > 5.52 | > 5.52
